The source made the active and inactive calls.
Tests used:
SN12K1 = experiment: cells; assay type: functional; conditions: Homo sapiens
P388 = experiment: cells; assay type: functional; conditions: Mus musculus
P388/ADR = experiment: cells; assay type: functional; conditions: Mus musculus
[1] = intracellular Trypanosoma cruzi inhibitors in host cells – cell-based, plate reader, cherry-pick samples, set 3, dose response (AID 651818); assay type: functional;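 also: compounds incubated with infected cells for about four days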
[2] = molecular target: T1, High affinity choline transporter 1 (Homo sapiens, UniProt Q9GZV3); experiment: CHT inhibitors, dose response, cell-based, 5-point CRC, membrane potential dye (AID 504840); assay type: functional
T1 sequence (Q9GZV3 whole entry): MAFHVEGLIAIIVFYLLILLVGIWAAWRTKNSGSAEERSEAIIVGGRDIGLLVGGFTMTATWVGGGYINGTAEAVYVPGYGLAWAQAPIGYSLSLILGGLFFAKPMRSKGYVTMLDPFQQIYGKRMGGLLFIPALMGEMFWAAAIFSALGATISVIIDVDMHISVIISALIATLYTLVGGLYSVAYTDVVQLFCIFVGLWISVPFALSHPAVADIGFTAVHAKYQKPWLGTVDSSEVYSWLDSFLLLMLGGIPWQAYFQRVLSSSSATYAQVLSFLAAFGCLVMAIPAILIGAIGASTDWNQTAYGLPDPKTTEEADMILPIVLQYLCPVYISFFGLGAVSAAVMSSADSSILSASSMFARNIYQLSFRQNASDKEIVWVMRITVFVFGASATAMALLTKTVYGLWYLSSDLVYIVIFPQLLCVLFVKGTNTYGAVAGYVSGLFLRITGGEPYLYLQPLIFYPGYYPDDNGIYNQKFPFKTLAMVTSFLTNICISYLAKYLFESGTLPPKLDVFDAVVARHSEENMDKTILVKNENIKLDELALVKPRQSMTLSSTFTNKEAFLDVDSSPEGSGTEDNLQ

[3] = molecular target: T2, Heat shock factor protein 1 (Mus musculus, UniProt P38532); experiment: inhibition of MG132-induced HSE-luciferase signal, confirmation, cell-based, NIH3T3, luminescence, dose retest (AID 2382); assay type: functional;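 also: NIH3T3 fibroblasts with HSF1-driven luciferase reporter stressed by proteasome inhibitor MG132; luminescence from HSF1-driven luciferase expression after 8 hours of MG132 stress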
T2 sequence (P38532 whole entry): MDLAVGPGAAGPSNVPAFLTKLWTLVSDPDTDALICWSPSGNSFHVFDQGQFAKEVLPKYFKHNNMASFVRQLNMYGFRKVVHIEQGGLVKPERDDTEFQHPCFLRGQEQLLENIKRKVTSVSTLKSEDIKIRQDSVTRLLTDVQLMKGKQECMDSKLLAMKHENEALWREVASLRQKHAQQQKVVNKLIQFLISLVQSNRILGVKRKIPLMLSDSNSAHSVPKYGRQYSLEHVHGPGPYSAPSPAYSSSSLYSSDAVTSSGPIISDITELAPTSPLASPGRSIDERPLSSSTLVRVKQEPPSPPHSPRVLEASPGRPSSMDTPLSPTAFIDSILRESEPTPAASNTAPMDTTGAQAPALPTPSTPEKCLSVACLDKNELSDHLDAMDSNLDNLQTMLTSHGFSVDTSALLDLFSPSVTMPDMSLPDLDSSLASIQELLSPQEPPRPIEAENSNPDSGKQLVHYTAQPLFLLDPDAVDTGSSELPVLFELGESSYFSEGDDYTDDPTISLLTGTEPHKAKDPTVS

[4] = molecular target: T3, Rac GTPase-activating protein 1 (Homo sapiens, UniProt Q9H0H5); experiment: MgcRacGAP GTPase-activating activity inhibitors, confirmation, biochemical, ADP Hunter fluorescence, primary and confirmatory (AID 624330); assay type: functional
T3 sequence (Q9H0H5 whole entry): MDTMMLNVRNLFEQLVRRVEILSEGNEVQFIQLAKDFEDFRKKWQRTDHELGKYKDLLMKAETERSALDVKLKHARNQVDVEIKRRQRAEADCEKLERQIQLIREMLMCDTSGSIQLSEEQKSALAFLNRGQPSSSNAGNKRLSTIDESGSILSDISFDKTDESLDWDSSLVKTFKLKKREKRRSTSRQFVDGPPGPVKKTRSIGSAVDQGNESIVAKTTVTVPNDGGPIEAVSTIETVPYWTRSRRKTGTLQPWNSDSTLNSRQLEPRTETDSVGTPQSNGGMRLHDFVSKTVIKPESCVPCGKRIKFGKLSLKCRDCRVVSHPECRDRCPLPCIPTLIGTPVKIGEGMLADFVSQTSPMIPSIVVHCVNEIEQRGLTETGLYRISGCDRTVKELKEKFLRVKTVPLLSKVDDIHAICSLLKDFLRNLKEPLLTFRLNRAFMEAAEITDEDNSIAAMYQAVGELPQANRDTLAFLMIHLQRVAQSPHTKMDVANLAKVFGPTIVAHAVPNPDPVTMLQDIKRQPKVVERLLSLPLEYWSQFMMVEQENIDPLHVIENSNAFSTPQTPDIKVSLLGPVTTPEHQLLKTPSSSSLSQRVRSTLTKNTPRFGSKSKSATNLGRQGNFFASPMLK

[5] = molecular target: FAD-linked sulfhydryl oxidase ALR (Homo sapiens, UniProt P55789); experiment: inhibitors of human ALR sulfhydryl oxidase, dose response, biochemical, H2O2 detection, luminescence, cherry-pick (AID 493248)
Large T antigen = Large T antigen (Simian virus 40, UniProt P03070); assay type: functional, Betapolyomavirus macacae;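 also: Confirmatory-stage PubChem screen for compounds that inhibit SV40 T antigen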
[6] = inhibitors of HIV Env-driven cell fusion, dose response, cherry-pick (AID 652057); assay type: functional, cell-based
Protein skinhead-1 = molecular target: T4, Protein skinhead-1 (Caenorhabditis elegans, UniProt P34707); assay type: functional
T4 sequence (P34707 whole entry): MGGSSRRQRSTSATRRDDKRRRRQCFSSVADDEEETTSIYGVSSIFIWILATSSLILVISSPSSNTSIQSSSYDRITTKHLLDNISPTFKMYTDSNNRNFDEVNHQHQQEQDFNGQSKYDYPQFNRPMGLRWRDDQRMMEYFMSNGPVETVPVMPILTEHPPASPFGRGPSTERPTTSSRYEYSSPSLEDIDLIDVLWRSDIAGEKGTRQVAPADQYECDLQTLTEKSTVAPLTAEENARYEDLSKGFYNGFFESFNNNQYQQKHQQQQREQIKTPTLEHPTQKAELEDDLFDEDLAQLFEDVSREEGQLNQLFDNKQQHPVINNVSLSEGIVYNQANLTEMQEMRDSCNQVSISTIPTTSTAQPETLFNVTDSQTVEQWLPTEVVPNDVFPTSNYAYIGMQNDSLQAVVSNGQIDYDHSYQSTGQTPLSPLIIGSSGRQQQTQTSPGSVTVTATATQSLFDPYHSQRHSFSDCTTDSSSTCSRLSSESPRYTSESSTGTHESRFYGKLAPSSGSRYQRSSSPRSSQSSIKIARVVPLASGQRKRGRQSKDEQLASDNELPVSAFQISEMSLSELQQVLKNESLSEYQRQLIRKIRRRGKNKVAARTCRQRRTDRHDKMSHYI

[7] = inhibitors of clade B AD8 Env fusion, dose response, cell-based, cherry-pick (AID 652062); assay type: functional;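 also: luciferase signal from cell-cell fusion driven by HIV-1 clade B AD8 Env; potency is for inhibitors of fusion seen as a drop in luminescence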
[8] = off-target signal loss in HeLa-CEM21 co-culture – HeLa F-luc CTL cells, cherry-picked, counter-screen for HIV-1 Env fusion inhibitor project, dose response (AID 652040); assay type: functional, cell-based;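 also: potency for signal decrease marking cytotoxic or nonspecific inhibition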
[9] = ZM109 Env clade C HIV-1 fusion inhibitors, dose response, HeLa effector, CEM target cells, luciferase, cherry-pick (AID 652058); assay type: functional, cell-based

Chain of Large T antigen (P03070 whole entry, the tested form may be a part): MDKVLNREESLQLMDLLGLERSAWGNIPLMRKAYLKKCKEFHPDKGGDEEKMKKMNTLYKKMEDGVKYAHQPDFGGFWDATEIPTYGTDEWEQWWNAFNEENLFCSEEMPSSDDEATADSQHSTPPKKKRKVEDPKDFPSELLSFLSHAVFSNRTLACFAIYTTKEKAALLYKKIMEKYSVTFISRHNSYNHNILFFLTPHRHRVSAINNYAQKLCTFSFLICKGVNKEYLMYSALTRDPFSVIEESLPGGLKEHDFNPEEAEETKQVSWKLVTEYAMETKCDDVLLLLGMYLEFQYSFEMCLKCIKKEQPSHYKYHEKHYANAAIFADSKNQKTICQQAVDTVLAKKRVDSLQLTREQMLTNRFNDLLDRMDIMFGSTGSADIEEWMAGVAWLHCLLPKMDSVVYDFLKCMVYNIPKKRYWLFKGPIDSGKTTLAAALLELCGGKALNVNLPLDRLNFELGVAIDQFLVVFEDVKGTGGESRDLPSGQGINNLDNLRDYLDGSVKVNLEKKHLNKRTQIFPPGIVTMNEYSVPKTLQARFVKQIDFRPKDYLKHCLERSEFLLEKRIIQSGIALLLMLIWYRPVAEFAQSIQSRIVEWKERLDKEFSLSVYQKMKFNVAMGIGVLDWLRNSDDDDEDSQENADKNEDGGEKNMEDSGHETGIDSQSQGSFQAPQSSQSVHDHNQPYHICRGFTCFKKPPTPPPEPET
Chain of FAD-linked sulfhydryl oxidase ALR (P55789 whole entry): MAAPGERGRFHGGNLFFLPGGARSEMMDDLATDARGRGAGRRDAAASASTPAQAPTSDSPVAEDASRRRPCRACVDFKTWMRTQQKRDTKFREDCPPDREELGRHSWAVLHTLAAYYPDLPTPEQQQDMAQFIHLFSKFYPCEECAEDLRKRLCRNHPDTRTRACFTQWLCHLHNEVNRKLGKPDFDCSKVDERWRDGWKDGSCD

Row | Compound | GI50 (SN12K1) | GI50 (P388) | GI50 (P388/ADR) | AC50 [1] | further results
1 | NC(=O)NN=C(CS)CS | 18.7 µM (inactive) | 19.1 µM (inactive) | 29.2 µM (inactive) | – | –
2 | C[C@H]1CN([C@@H](C)CO)C(=O)c2cc(NC(=O)Nc3ccc(C(F)(F)F)cc3)ccc2O[C@@H]1CN(C)Cc1ccc2c(c1)OCO2 | – | – | – | 4.02 µM (active) | –
3 | CC(=O)NC(Cc1ccsc1)C(=O)O (stereo not drawn) | > 100 µM (inactive) | > 100 µM (inactive) | > 100 µM (inactive) | – | –
4 | COc1ccc(S(=O)(=O)Nc2ccc3c(c2)CC(=O)N([C@H](C)CO)C[C@@H](C)[C@@H](CN(C)Cc2ccc(Oc4ccccc4)cc2)O3)cc1 | – | – | – | 2.26 µM (active) | –
5 | C[C@H]1CN([C@@H](C)CO)C(=O)c2cc(NC(=O)Nc3ccc(F)cc3)ccc2O[C@H]1CN(C)Cc1ccc(-c2ccccc2)cc1 | – | – | – | 3.74 µM (active) | –
6 | C[C@@H]1CN([C@@H](C)CO)C(=O)Cc2cc(NC(=O)Nc3ccc(C(F)(F)F)cc3)ccc2O[C@@H]1CN(C)C(=O)Nc1ccc(C(F)(F)F)cc1 | – | – | – | 3.66 µM (active) | –
7 | CC(=O)/C=C/c1c[nH]c(=O)[nH]c1=O | 121 µM (inactive) | 164 µM (inactive) | 148 µM (inactive) | – | –
8 | C[C@H](CO)N1C[C@H](C)[C@H](CN(C)S(=O)(=O)c2ccc(Cl)cc2)Oc2c(NC(=O)Nc3ccc(C(F)(F)F)cc3)cccc2C1=O | – | – | – | 4.44 µM (active) | –
9 | COc1cc(/N=N\c2cccc(S(=O)(=O)O)c2)c(C)cc1/N=N\c1ccc(/C=C/c2ccc(/N=[N+](/[O-])c3ccc(/C=C/c4ccc(/N=N\c5cc(C)c(/N=N/c6cccc(S(=O)(=O)O)c6)cc5OC)cc4)c(S(=O)(=O)O)c3)cc2S(=O)(=O)O)cc1 | > 100 µM (inactive) | > 100 µM (inactive) | – | – | –
10 | CCCn1c2ccccc2c2cnn(CC(=O)NCCN(C)C)c(=O)c21 | – | – | – | – | IC50 [2]: 11.5 µM (active)
11 | C[C@H](CO)N1C[C@H](C)[C@H](CN(C)Cc2ccc(C(F)(F)F)cc2)Oc2ccc(NC(=O)Cc3cn(C)c4ccccc34)cc2C1=O | – | – | – | 4.35 µM (active) | –
12 | CCN(CC)c1ccc2cc(C(=O)Nc3ccc4[nH]c(C(=O)N5C[C@@H](CCl)c6c5cc(OC(=O)Nc5ccccc5)c5[nH]cc(C)c65)cc4c3)oc2c1 [CARZELESIN] | 0.00016 µM (active) | 8.38e-05 µM (active) | 259 µM (inactive) | – | –
13 | CC1=C2C(=CO[C@H](C)[C@H]2C)C(O)=C(C(=O)O)C1=O [CITRININ] | 15.3 µM (inactive) | 17 µM (inactive) | 11.5 µM (inactive) | – | –
14 | C[C@H]1CN([C@@H](C)CO)C(=O)c2cccc(N(C)C)c2O[C@H]1CN(C)Cc1ccc(C(=O)Nc2ccccc2N)cc1 | – | – | – | 4.84 µM (active) | –
15 | C[C@@H]1CN([C@H](C)CO)C(=O)c2cc(NS(=O)(=O)c3ccc(F)cc3)ccc2O[C@H]1CN(C)Cc1ccc(-c2ccccc2)cc1 | – | – | – | 5.77 µM (active) | –
16 | C[C@@H]1CN([C@H](C)CO)C(=O)Cc2cc(NC(=O)Nc3ccc(C(F)(F)F)cc3)ccc2O[C@@H]1CN(C)Cc1ccc(Oc2ccccc2)cc1 | – | – | – | 3.3 µM (active) | –
17 | O=C(Nc1ccc(F)c(Cl)c1)C1CCN(S(=O)(=O)c2cccnc2)CC1 | – | – | – | – | IC50 [2]: 13.2 µM (active); EC50 [3]: > 195 µM (not active)
18 | O=C(NCCCCCCNC(=O)n1cc(F)c(=O)[nH]c1=O)NCCCOCCOCCCNC(=O)C(O)C(O)C(O)C(O)CO (stereo not drawn) | > 1.91 µM (inactive) | 0.107 µM (active) | 0.0822 µM (active) | – | –
19 | CCC1(C)Cc2c(sc3nnn(CC(=O)Nc4ccccc4)c(=O)c23)CO1 (stereo not drawn) | – | – | – | – | IC50 [2]: 11.5 µM (active)
20 | C[C@]12C=CC(=O)C=C1CC[C@@H]1[C@@H]2CC[C@]2(C)OC(=O)CC[C@@H]12 [TESTOLACTONE] | 458 µM (inactive) | 162 µM (inactive) | 161 µM (inactive) | – | –
21 | CCN(CC)c1ccc(NC(=O)CNCc2ccccc2Cl)c(C)c1 | – | – | – | – | IC50 [2]: 20.9 µM (active); IC50 [4]: 31 µM (active); AC50 [5]: 1.61 µM (active)
22 | O=C1NC(=O)N(c2ccc(Cl)cc2)C(=O)/C1=C/c1coc2ccc(O)cc2c1=O | – | – | – | – | IC50 [2]: 12.7 µM (active); IC50 (Large T antigen): > 100 µM (active)
23 | COc1cccc2c1C(=O)c1c(O)c3c(c(O)c1C2=O)C[C@@](O)(C(C)=O)C[C@@H]3OC1CC(N)C(O)C(C)O1 (stereo partly drawn) | 0.069 µM (active) | 0.076 µM (active) | 1.23 µM (inactive) | – | –
24 | C/C(=N\NC(=S)N1CCN(c2ccccn2)CC1)c1ncccn1 | 0.007 µM (active) | 0.00326 µM (active) | 0.00356 µM (active) | – | –
25 | CN(C)c1ccc(C(=O)c2ccc(O)cc2O)cc1 | – | – | – | – | IC50 [2]: 11 µM (active)
26 | Cc1cc(C)c2nc(C(F)(F)F)nc(N3CCN(C(=O)c4ccco4)CC3)c2c1 | – | – | – | – | AC50 [6]: 31.2 µM (active); IC50 (Protein skinhead-1): > 100 µM (inactive); AC50 [7]: 25.7 µM (active); AC50 [8]: 21.9 µM (active); AC50 [9]: 1.22 µM (active)
27 | COc1ccc(C(=O)N(C)Cc2ccc(C)o2)cc1OC1CCN(C(C)C)CC1 | – | – | – | – | IC50 [2]: 12.6 µM (active)
28 | O=[N+]([O-])c1cc2ncc(-c3ccccc3)c(O)c2cc1/C(Cl)=C/c1ccccc1 | 9.08 µM (inactive) | 7.35 µM (inactive) | 4.53 µM (inactive) | – | –
29 | Cc1ccc(N(O)C(C)(C)C)cc1 | > 100 µM (inactive) | > 52.1 µM (inactive) | 24.8 µM (inactive) | – | –
30 | O=C1N[C@@H]([C@H]2CC[C@H](Cl)CN2)C(=O)N[C@H]1[C@H]1CC[C@H](Cl)CN1 | 1.02 µM (active) | 0.327 µM (active) | 0.318 µM (active) | – | –

Source: ChEMBL document CHEMBL1201862, “PubChem BioAssay data set” (2004)
